Laboratory results as given in PMC6222357, “Liquid Chromatography-Tandem Mass Spectrometry Simultaneous Determination and Pharmacokinetic Study of Fourteen Alkaloid Components in Dog Plasma after Oral Administration of Corydalis bungeana Turcz Extract” (Molecules : A Journal of Synthetic Chemistry and Natural …, 2018).
Read-outs that look alike come from different tables or passages of the source.

How the values were obtained:
[1] = Stability of the analytes in beagle plasma QC samples under different storage conditions; format: physicochemical, beagle dog; conditions: n = 6; for Stability (% RE) Long-Term: 2 weeks at −80 °C; for Stability (% RE) Short-Term: 4 h at ambient temperature; for Stability (% RE) Freeze-Thaw: three freeze (−80 °C)-thaw cycles; for Stability (% RE) Post-Preparative: 12 h after sample preparation at 4 °C
Method: As illustrated in Table 4. The stability of QC samples at three evaluated concentrations contained low, medium and high under different stored conditions was assessed on the basis of peak areas in comparison with freshly prepared QC sample.
(§1) The stability of the fourteen analytes in beagle dogs investigated by analyzing QC samples of each analyte at three QC levels (LQC, MQC and HQC) and each level contained six replicates. The short-term stability was assessed during storage for 4 h at ambient temperature. The long-term stability was determined after the QC samples had been stored for 2 weeks at −80 °C. The freeze-thaw stability was determined after three freeze at −80 °C and thaw cycles. and post-preparative stability was during storage for 12 h after sample preparation at 4 °C. The room temperature stability for stock solution was determined after storing the sample at 25 °C for 24 h. A series of concentrations of stability testing QC samples was gained by the calibration curve which was established from freshly prepared standard samples.

in vivo = conditions: male, beagle, dog, po, 0.12 g/kg
Method: (§2) The developed UHPLC-MS/MS method was employed to determine the pharmacokinetics of the fourteen components in C. bungeana after a single oral administration of 0.12 g/kg (equivalent to 1180.8 µg/kg A, 100.8 µg/kg B, 172.8 µg/kg C, 194.4 µg/kg D, 147.6 µg/kg E, 291.6 µg/kg F, 7.2 µg/kg G, 64.8 µg/kg H, 10.8 µg/kg I, 435.6 µg/kg J, 7.2 µg/kg K, 2851.2 µg/kg L, 694.8 µg/kg M, 928.8µg/kg N) to six beagle dogs. […] According to the Meeh-Rubn method, we established a final oral dosage of 0.12 g/kg in dogs. The plasma concentrations of the fourteen components at each time point were detected and the data gained from six beagle dogs were averaged.
(§3) Before the experiment, the beagle dogs were fasted for 12 h but given water during the research period. Blood (300 µL) was collected from the forelimb vein plexus at a few specific time points (0.083, 0.25, 0.5, 0.75 and 1, 2, 3, 4, 6, 8, 12, 24 h) after the oral administration of the extract of C. bungeana (0.12 g/kg). After centrifugation at 13,000 rpm for 10 min, the plasma was collected immediately and maintained at −80 °C until sample analysis.
(§4) Using a liquid-liquid extraction method, 100 µL of methanol and 50 µL of IS (bifendate) were added to a beagle dog plasma sample (100 µL) followed by vortex for 30 s. Then 3 mL of aether was accurately added and the mixture was vortexed for 60 s. After this step, the samples were put into a centrifuge (XiangYi Technologies, Changsha, Hunan, China). The organic supernatant was pipetted into clean glass tubes individually after centrifugation 3800 rpm for 6 min. The upper organic layer was removed and evaporated to dryness at 40 °C under a stream of nitrogen. The residue was then redissolved with 100 µL of mobile phase (28% acetonitrile), vortexed for 30 s and filtered by a 0.22 µm membrane. A 10 µL aliquot of the solution was injected into the UHPLC-MS/MS system for analysis.
(§5) Concentrations of fourteen alkaloids in beagle dog blood were calculated employing the Excel program (Microsoft Corp., Redmond, WA, USA). Pharmacokinetic parameters were calculated using non-compartmental methods. The elimination rate constant (Ke) was calculated employing the linear regression of the terminal points in a semi-log plot of the plasma concentration against time. The elimination half-life (t1/2) was calculated using the formula. t1/2 = 0.693/Ke(1)
(§6) The area under the blood concentration versus time curve up to the last quantifiable time point (AUC0→t) was calculated by the linear trapezoidal rule. The area under the plasma concentration –time curve to time infinity (AUC0→∞) was calculated as follows: AUC0→∞ = AUC0→t + Ct/Ke(2)
(§7) The maximum observed blood concentration (Cmax) and the time to reach maximum observed blood concentration (Tmax) were obtained directly from the concentration-time curve.

[2] = Pharmacokinetic study in beagle dogs after oral administration of C. bungeana extract (UHPLC-MS/MS of plasma); conditions: for AUC(0-inf) / AUC(0-t) / Cmax / half-life / Tmax: male, beagle, dog, plasma, po, 0.12 g/kg
Method: as §2, §3, §4, §5, §6, §7

[3] = Room temperature stability of stock solution; format: physicochemical; conditions: 25 °C for 24 h, n = 6
Method: as §1

[4] = design: method as in PMID 26805956; conditions: rat plasma, single oral administration of C. bungeana extract; cited from earlier work
[5] = beagle dog plasma, oral C. bungeana extract, post-dose

Compound	Stability (% RE) Long-Term ([1]; high QC in beagle plasma) [% RE]	Stability (% RE) Short-Term ([1]; high QC in beagle plasma) [% RE]	Stability (% RE) Freeze-Thaw ([1]; high QC in beagle plasma) [% RE]	Stability (% RE) Long-Term ([1]; low QC in beagle plasma) [% RE]	Stability (% RE) Short-Term ([1]; low QC in beagle plasma) [% RE]	Stability (% RE) Freeze-Thaw ([1]; low QC in beagle plasma) [% RE]	Stability (% RE) Long-Term ([1]; medium QC in beagle plasma) [% RE]	Stability (% RE) Short-Term ([1]; medium QC in beagle plasma) [% RE]	Stability (% RE) Freeze-Thaw ([1]; medium QC in beagle plasma) [% RE]	AUC(0-inf) [2] [ng·h/mL]	AUC(0-t) [2] [ng·h/mL]	Cmax [2] [ng/mL]	half-life [2] [h]	Stability (% RE) Room Temperature for Stock-Solution ([3]; high QC level) [% RE]	Stability (% RE) Room Temperature for Stock-Solution ([3]; low QC level) [% RE]	Stability (% RE) Room Temperature for Stock-Solution ([3]; medium QC level) [% RE]	Stability (% RE) Post-Preparative ([1]; high QC) [% RE]	Stability (% RE) Post-Preparative ([1]; low QC) [% RE]	Stability (% RE) Post-Preparative ([1]; medium QC) [% RE]	Tmax [2] [h]	other results
c1c2c(cc3c1OCO3)-c1cc3ccc4c(c3c[n+]1CC2)OCO4 [Coptisine, coptisine]	13.69	7.57	12.83	5.48	10.66	10.21	6.73	−3.05	8.93												AUC(0-inf) (in vivo): 6030 ± 194 ng·h/mL; AUC(0-t) (in vivo): 5960 ± 205 ng·h/mL; Cmax (in vivo): 2260 ± 256 ng/mL; Tmax (in vivo): 0.92 ± 0.13 h; half-life (in vivo): 2.48 ± 0.33 h
COc1cc2c(cc1O)CC[n+]1cc3c(OC)c(OC)ccc3cc1-2 [Jateorhizine, jateorhizine]	8.26	6.64	6.24	12.90	7.31	10.65	10.30	3.05	8.68	163 ± 11	151 ± 6.42	74.2 ± 8.71	6.29 ± 1.09	1.32	1.16	−3.58	8.41	6.63	8.51		Shape of plasma concentration-time profile ([2]; beagle dog plasma, oral C. bungeana extract 0.12 g/kg): conspicuous bimodal phenomenon; Time of first peak of plasma concentration-time profile [2, 5]: 0.5 to 1 h; Time of second peak of plasma concentration-time profile [2, 5]: 4 to 8 h
CN1CCc2cc3c(cc2C(=O)Cc2ccc4c(c2C1)OCO4)OCO3 [Protopine, protopine]	13.11	12.18	10.26	−5.39	5.52	3.72	7.93	8.75	4.17	1080 ± 136	1030 ± 106	434 ± 73.9	4.92 ± 1.49				10.57	1.65	11.35	0.88 ± 0.13	Tmax [4]: 1.96 h
C[n+]1cc2c3c(ccc2c2ccc4cc5c(cc4c21)OCO5)OCO3 [Sanguinarine, sanguinarine]	11.08	9.29	12.22	13.35	12.41	11.45	7.46	−5.50	8.78					−4.02	2.48	3.20	10.40	7.77	−2.41		AUC(0-inf) (in vivo): 1350 ± 109 ng·h/mL; AUC(0-t) (in vivo): 1260 ± 107 ng·h/mL; Cmax (in vivo): 533 ± 29.1 ng/mL; Tmax (in vivo): 0.96 ± 0.1 h; half-life (in vivo): 5.63 ± 1.36 h
COc1cc2c(cc1OC)[C@@H]1Cc3ccc(OC)c(OC)c3CN1CC2 [Terahydropalmatine, tetrahydropalmatine]	10.23	5.15	10.09	−5.67	9.24	11.34	11.88	3.11	12.23	622 ± 52.5	585 ± 59.9	205 ± 22.4	5.58 ± 1.46	1.28	2.97	4.65	8.76	10.82	8.29	0.92 ± 0.13	
COc1ccc(CCNC(=O)/C=C/c2ccc(O)c(O)c2)cc1 [Z23, 7′-(3′,4′-dihydroxyphenyl)-N-[(4-methoxyphenyl)-ethyl]propena-mide]	9.00	10.85	12.43	−8.16	10.52	5.35	9.86	9.94	12.92	747 ± 95.2	682 ± 74.8	237 ± 13.7	6.34 ± 1.21	2.30	3.65	1.64	−6.09	12.10	11.32	0.96 ± 0.1	Tmax [4]: 3.71 h
